Test results reported in PMC5218480 (PLoS ONE, 2017).

System: MV-4-11 cells
Assay: Gene expression microarray analysis (Affymetrix PrimeView) and GSEA
Type: cell-based, human
Parameters: RFU PODN (11730768_x_at) / Fold change /veh PODN (11730768_x_at) / RFU LINC00158 (11744669_a_at) / Fold change /veh LINC00158 (11744669_a_at) / RFU DUSP10 (11751237_a_at) / Fold change /veh DUSP10 (11751237_a_at) / RFU ID3 (11757404_x_at) / Fold change /veh ID3 (11757404_x_at) / RFU PLEKHG5 (11737974_s_at) / Fold change /veh PLEKHG5 (11737974_s_at) / RFU LRRC4B (11730491_at) / Fold change /veh LRRC4B (11730491_at) / RFU GIMAP4 (11747438_a_at) / Fold change /veh GIMAP4 (11747438_a_at) / RFU KRT8 (11758183_x_at) / Fold change /veh KRT8 (11758183_x_at) / RFU CNN1 (11734310_a_at) / Fold change /veh CNN1 (11734310_a_at) / RFU VPS37D (11726825_at) / Fold change /veh VPS37D (11726825_at) / RFU C10orf10 (11716522_x_at) / Fold change /veh C10orf10 (11716522_x_at) / RFU KIR2DL2 /// KIR2DL4 /// KIR2DL5A /// KIR2DL5B /// KIR2DS1 /// KIR2DS2 /// KIR2DS3 /// KIR2DS4 /// KIR3DL3 /// KIR3DL3 /// KIR3DS1 (11738374_at) / Fold change /veh KIR2DL2 /// KIR2DL4 /// KIR2DL5A /// KIR2DL5B /// KIR2DS1 /// KIR2DS2 /// KIR2DS3 /// KIR2DS4 /// KIR3DL3 /// KIR3DL3 /// KIR3DS1 (11738374_at) / RFU C1QL1 (11718748_at) / Fold change /veh C1QL1 (11718748_at) / RFU TMPRSS4 (11747572_a_at) / Fold change /veh TMPRSS4 (11747572_a_at) / RFU HAMP (11756126_x_at) / Fold change /veh HAMP (11756126_x_at) / RFU RNFT2 (11725882_a_at) / Fold change /veh RNFT2 (11725882_a_at) / RFU NR4A2 (11747474_a_at) / Fold change /veh NR4A2 (11747474_a_at) / RFU ABCC12 (11746883_a_at) / Fold change /veh ABCC12 (11746883_a_at) / RFU TMEM136 (11760407_x_at) / Fold change /veh TMEM136 (11760407_x_at) / RFU CLDN22 /// WWC2 (11732394_at) / Fold change /veh CLDN22 /// WWC2 (11732394_at) / RFU HLA-DPB1 (11760878_x_at) / Fold change /veh HLA-DPB1 (11760878_x_at) / RFU SPINT1 (11716480_a_at) / Fold change /veh SPINT1 (11716480_a_at) / RFU GAP43 (11754022_s_at) / Fold change /veh GAP43 (11754022_s_at) / RFU A4GNT (11735810_at) / Fold change /veh A4GNT (11735810_at) / RFU PRB3 (11715151_x_at) / Fold change /veh PRB3 (11715151_x_at) / RFU TUBB4B (11761932_at) / Fold change /veh TUBB4B (11761932_at) / RFU CAPN14 (11732068_a_at) / Fold change /veh CAPN14 (11732068_a_at) / RFU TMCC2 (11721928_a_at) / Fold change /veh TMCC2 (11721928_a_at) / RFU IRGQ (11745062_a_at) / Fold change /veh IRGQ (11745062_a_at) / RFU FAM174B (11720279_a_at) / Fold change /veh FAM174B (11720279_a_at) / RFU TMPRSS4 (11748680_a_at) / Fold change /veh TMPRSS4 (11748680_a_at) / RFU FAM212B (11763350_a_at) / Fold change /veh FAM212B (11763350_a_at) / RFU PLEKHG5 (11743358_a_at) / Fold change /veh PLEKHG5 (11743358_a_at) / RFU ZSCAN30 (11745921_a_at) / Fold change /veh ZSCAN30 (11745921_a_at) / RFU CMKLR1 (11741424_a_at) / Fold change /veh CMKLR1 (11741424_a_at) / RFU LOC101060620 /// MAPK8IP1 (11723275_at) / Fold change /veh LOC101060620 /// MAPK8IP1 (11723275_at) / RFU SPTSSB (11747773_x_at) / Fold change /veh SPTSSB (11747773_x_at) / RFU PRSS12 (11739890_at) / Fold change /veh PRSS12 (11739890_at) / RFU BIN1 (11741810_x_at) / Fold change /veh BIN1 (11741810_x_at) / RFU WNT11 (11732464_a_at) / Fold change /veh WNT11 (11732464_a_at) / RFU C10orf10 (11716521_a_at) / Fold change /veh C10orf10 (11716521_a_at) / RFU C5orf56 (11738089_at) / Fold change /veh C5orf56 (11738089_at) / RFU CYB561 (11721691_x_at) / Fold change /veh CYB561 (11721691_x_at) / RFU ANKRD19P (11752326_a_at) / Fold change /veh ANKRD19P (11752326_a_at) / RFU OR2T12 /// OR2T33 /// OR2T8 (11738714_s_at) / Fold change /veh OR2T12 /// OR2T33 /// OR2T8 (11738714_s_at) / RFU VCAN (11748164_a_at) / Fold change /veh VCAN (11748164_a_at) / RFU JSRP1 (11732532_at) / Fold change /veh JSRP1 (11732532_at) / RFU KRTAP10-11 (11738290_x_at) / Fold change /veh KRTAP10-11 (11738290_x_at) / RFU MYO3A (11730013_a_at) / Fold change /veh MYO3A (11730013_a_at) / RFU EBF3 (11725865_a_at) / Fold change /veh EBF3 (11725865_a_at) / RFU CAMK2N1 (11719241_x_at) / Fold change /veh CAMK2N1 (11719241_x_at) / RFU C5orf56 (11738088_a_at) / Fold change /veh C5orf56 (11738088_a_at) / RFU OLFML3 (11715873_a_at) / Fold change /veh OLFML3 (11715873_a_at) / RFU LOC100653217 /// NTM (11731650_a_at) / Fold change /veh LOC100653217 /// NTM (11731650_a_at) / RFU MAPK11 (11762145_a_at) / Fold change /veh MAPK11 (11762145_a_at) / RFU FIZ1 (11724087_x_at) / Fold change /veh FIZ1 (11724087_x_at) / RFU OASL (11726364_x_at) / Fold change /veh OASL (11726364_x_at) / RFU SOX15 (11748057_x_at) / Fold change /veh SOX15 (11748057_x_at) / RFU CD79A (11719716_a_at) / Fold change /veh CD79A (11719716_a_at) / RFU HIST1H1D (11736915_at) / Fold change /veh HIST1H1D (11736915_at) / RFU CASKIN2 (11723855_a_at) / Fold change /veh CASKIN2 (11723855_a_at) / RFU LOC730098 (11760151_x_at) / Fold change /veh LOC730098 (11760151_x_at) / RFU OR4N2 (11742367_at) / Fold change /veh OR4N2 (11742367_at) / RFU PRRT2 (11749266_a_at) / Fold change /veh PRRT2 (11749266_a_at) / RFU SNX32 (11753110_a_at) / Fold change /veh SNX32 (11753110_a_at) / RFU CDHR5 (11726645_a_at) / Fold change /veh CDHR5 (11726645_a_at) / RFU RCAN1 (11760418_a_at) / Fold change /veh RCAN1 (11760418_a_at) / RFU FAM167A (11723789_a_at) / Fold change /veh FAM167A (11723789_a_at) / RFU FAM26E (11764081_at) / Fold change /veh FAM26E (11764081_at) / RFU ISYNA1 (11749810_s_at) / Fold change /veh ISYNA1 (11749810_s_at) / RFU ACY1 (11761880_at) / Fold change /veh ACY1 (11761880_at) / RFU 11764098_at / Fold change /veh 11764098_at / RFU SAMD14 (11745864_x_at) / Fold change /veh SAMD14 (11745864_x_at) / RFU NPB (11741838_a_at) / Fold change /veh NPB (11741838_a_at) / RFU TMPRSS6 (11731388_a_at) / Fold change /veh TMPRSS6 (11731388_a_at) / RFU KRTAP10-2 (11738614_at) / Fold change /veh KRTAP10-2 (11738614_at) / RFU ARHGAP8 /// PRR5-ARHGAP8 (11727945_x_at) / Fold change /veh ARHGAP8 /// PRR5-ARHGAP8 (11727945_x_at) / RFU KRTAP5-7 /// NADSYN1 (11734609_at) / Fold change /veh KRTAP5-7 /// NADSYN1 (11734609_at) / RFU RASL12 (11751679_a_at) / Fold change /veh RASL12 (11751679_a_at) / RFU CDKN2B (11736163_a_at) / Fold change /veh CDKN2B (11736163_a_at) / RFU PRF1 (11729649_at) / Fold change /veh PRF1 (11729649_at) / RFU, ZNF638 /// ZNF638-IT1 / Fold change vs veh, ZNF638 /// ZNF638-IT1 / RFU, PANK3 / Fold change vs veh, PANK3 / RFU, SH3YL1 / Fold change vs veh, SH3YL1 / RFU, ZEB2 / Fold change vs veh, ZEB2 / RFU, NRIP1 / Fold change vs veh, NRIP1 / RFU, PTTG1IP / Fold change vs veh, PTTG1IP / RFU, CAPN2 / Fold change vs veh, CAPN2 / RFU, MED14 / Fold change vs veh, MED14 / RFU, SNORA58 / Fold change vs veh, SNORA58 / RFU, C1orf63 / Fold change vs veh, C1orf63 / RFU, LRRFIP1 / Fold change vs veh, LRRFIP1 / RFU, NDUFAF7 / Fold change vs veh, NDUFAF7 / RFU, SLC12A2 / Fold change vs veh, SLC12A2 / RFU, IBTK / Fold change vs veh, IBTK / RFU, ESF1 / Fold change vs veh, ESF1 / Fold change vs veh, TMEM50B / RFU, TAOK1 / Fold change vs veh, TAOK1 / RFU, ACBD3 / Fold change vs veh, ACBD3 / RFU, TMA16 / Fold change vs veh, TMA16 / RFU, RWDD3 / Fold change vs veh, RWDD3 / RFU, BCAT1 / Fold change vs veh, BCAT1 / RFU, EDEM3 / Fold change vs veh, EDEM3 / RFU, TMEM33 / Fold change vs veh, TMEM33 / RFU, WDR75 / Fold change vs veh, WDR75 / RFU, AHCTF1 / Fold change vs veh, AHCTF1 / RFU, TFRC / Fold change vs veh, TFRC / RFU, ZDHHC17 / Fold change vs veh, ZDHHC17 / RFU, NOM1 / Fold change vs veh, NOM1 / RFU, ARL8B / Fold change vs veh, ARL8B / RFU, ZBTB11 / Fold change vs veh, ZBTB11 / RFU, TAMM41 / Fold change vs veh, TAMM41 / RFU, KIAA1704 /// LOC100996395 / Fold change vs veh, KIAA1704 /// LOC100996395 / RFU, ING1 / Fold change vs veh, ING1 / RFU, TRMT61B / Fold change vs veh, TRMT61B / RFU, FUBP3 / Fold change vs veh, FUBP3 / RFU, TP53 / Fold change vs veh, TP53 / RFU, TNKS2 / Fold change vs veh, TNKS2 / RFU, ZFP14 / Fold change vs veh, ZFP14 / RFU, ACTR2 / Fold change vs veh, ACTR2 / RFU, PPP3R1 / Fold change vs veh, PPP3R1 / RFU, PIK3R1 / Fold change vs veh, PIK3R1 / RFU, HNRNPA1 / Fold change vs veh, HNRNPA1 / RFU, RNF170 / Fold change vs veh, RNF170 / RFU, ZNF28 / Fold change vs veh, ZNF28 / RFU, RNGTT / Fold change vs veh, RNGTT / RFU, OGT / Fold change vs veh, OGT / RFU, BRD1 / Fold change vs veh, BRD1 / RFU, MARS / Fold change vs veh, MARS / RFU, ZNF655 / Fold change vs veh, ZNF655 / RFU, FAHD1 / Fold change vs veh, FAHD1 / RFU, BDP1 / Fold change vs veh, BDP1 / RFU, LRRCC1 / Fold change vs veh, LRRCC1 / RFU, ARID1A / Fold change vs veh, ARID1A / RFU, ZNF146 / Fold change vs veh, ZNF146 / RFU, ZNF330 / Fold change vs veh, ZNF330 / RFU, GPN3 / Fold change vs veh, GPN3 / RFU, C9orf123 / Fold change vs veh, C9orf123 / RFU, N4BP2L2 / Fold change vs veh, N4BP2L2 / RFU, ARFIP1 / Fold change vs veh, ARFIP1 / RFU, FAM179B / Fold change vs veh, FAM179B / RFU, BCL10 / Fold change vs veh, BCL10 / RFU, UHRF1BP1L / Fold change vs veh, UHRF1BP1L / RFU, BET1 / Fold change vs veh, BET1 / RFU, CNOT2 / Fold change vs veh, CNOT2 / RFU, ZNF268 / Fold change vs veh, ZNF268 / Fold change vs veh, ZNF507 / RFU, DGCR2 / Fold change vs veh, DGCR2 / RFU, WDSUB1 / Fold change vs veh, WDSUB1 / Fold change vs veh, HSP90B1 /// MIR3652 / RFU, ADSS / Fold change vs veh, ADSS / RFU, GK / Fold change vs veh, GK / RFU, ZNF148 / Fold change vs veh, ZNF148 / RFU, TAF9 / Fold change vs veh, TAF9 / RFU, SLC1A5 / Fold change vs veh, SLC1A5 / RFU, SLMO2 / Fold change vs veh, SLMO2 / RFU, ABCC4 / Fold change vs veh, ABCC4 / RFU, LOC101060439 /// RAP1B / Fold change vs veh, LOC101060439 /// RAP1B / RFU, RFX7 / Fold change vs veh, RFX7 / RFU, GTPBP10 / Fold change vs veh, GTPBP10 / RFU, CNEP1R1 / Fold change vs veh, CNEP1R1 / RFU, BIVM-ERCC5 /// ERCC5 / Fold change vs veh, BIVM-ERCC5 /// ERCC5 / RFU, ILF3 / Fold change vs veh, ILF3 / RFU 11762660_at / Fold change /veh 11762660_at / RFU VCAN (11757783_s_at) / Fold change /veh VCAN (11757783_s_at) / RFU DDX43 (11728927_at) / Fold change /veh DDX43 (11728927_at) / RFU KRT8 (11758188_x_at) / Fold change /veh KRT8 (11758188_x_at) / RFU NKD1 (11759106_at) / Fold change /veh NKD1 (11759106_at) / RFU SRD5A1 (11742802_a_at) / Fold change /veh SRD5A1 (11742802_a_at) / RFU TPSAB1 /// TPSB2 (11721975_s_at) / Fold change /veh TPSAB1 /// TPSB2 (11721975_s_at) / RFU GSTM3 (11746129_a_at) / Fold change /veh GSTM3 (11746129_a_at) / RFU IL23R (11737362_x_at) / Fold change /veh IL23R (11737362_x_at) / RFU TMEM51 (11727254_a_at) / Fold change /veh TMEM51 (11727254_a_at) / RFU PIWIL2 (11732686_x_at) / Fold change /veh PIWIL2 (11732686_x_at) / RFU ORM1 (11744905_x_at) / Fold change /veh ORM1 (11744905_x_at) / RFU CCDC152 (11743942_at) / Fold change /veh CCDC152 (11743942_at) / RFU ECM1 (11717891_a_at) / Fold change /veh ECM1 (11717891_a_at) / RFU IL23R (11748794_a_at) / Fold change /veh IL23R (11748794_a_at) / RFU TNFAIP8L3 (11732012_x_at) / Fold change /veh TNFAIP8L3 (11732012_x_at) / RFU MBOAT4 (11741988_at) / Fold change /veh MBOAT4 (11741988_at) / RFU 11764193_at / Fold change /veh 11764193_at / RFU TMEM53 (11763286_at) / Fold change /veh TMEM53 (11763286_at) / RFU MAGEB2 (11727129_at) / Fold change /veh MAGEB2 (11727129_at) / RFU TMEM200A (11744735_a_at) / Fold change /veh TMEM200A (11744735_a_at) / RFU CCDC152 (11751479_a_at) / Fold change /veh CCDC152 (11751479_a_at) / RFU FAM211A (11726209_a_at) / Fold change /veh FAM211A (11726209_a_at) / RFU RGS16 (11746705_a_at) / Fold change /veh RGS16 (11746705_a_at) / RFU VCAN (11755009_s_at) / Fold change /veh VCAN (11755009_s_at) / RFU RHOB (11743442_s_at) / Fold change /veh RHOB (11743442_s_at) / RFU RGS16 (11720943_a_at) / Fold change /veh RGS16 (11720943_a_at) / RFU RGS16 (11720944_at) / Fold change /veh RGS16 (11720944_at) / RFU, VPS4B / Fold change vs veh, VPS4B / RFU, CREB1 / Fold change vs veh, CREB1 / RFU, DNAJC13 / Fold change vs veh, DNAJC13 / RFU, GNAQ / Fold change vs veh, GNAQ / RFU, CDK5R1 / Fold change vs veh, CDK5R1 / RFU, ZRANB3 / Fold change vs veh, ZRANB3 / RFU, CUL4A / Fold change vs veh, CUL4A / RFU, CCNY / Fold change vs veh, CCNY / RFU, UFL1 / Fold change vs veh, UFL1 / RFU, COG3 / Fold change vs veh, COG3 / RFU, DIAPH2 / Fold change vs veh, DIAPH2 / RFU, SKA2 / Fold change vs veh, SKA2 / RFU, AFF3 / Fold change vs veh, AFF3 / RFU, LMF1 / Fold change vs veh, LMF1 / RFU, IPO11 / Fold change vs veh, IPO11 / RFU, DFFB / Fold change vs veh, DFFB / RFU, FOXP1 / Fold change vs veh, FOXP1 / RFU, CARD8 / Fold change vs veh, CARD8 / RFU, STRN3 / Fold change vs veh, STRN3 / RFU, ADK / Fold change vs veh, ADK / RFU, RASSF2 / Fold change vs veh, RASSF2 / RFU, WIPF1 / Fold change vs veh, WIPF1 / RFU, LARP1B / Fold change vs veh, LARP1B / RFU, RASA1 / Fold change vs veh, RASA1 / RFU, RB1 / Fold change vs veh, RB1 / RFU, PPFIA1 / Fold change vs veh, PPFIA1 / RFU, MAT2A / Fold change vs veh, MAT2A / RFU, CCT5 / Fold change vs veh, CCT5 / RFU, WDR92 / Fold change vs veh, WDR92 / RFU, CUX1 / Fold change vs veh, CUX1 / RFU, TTC7A / Fold change vs veh, TTC7A / RFU, TMEM135 / Fold change vs veh, TMEM135 / RFU, DEPTOR / Fold change vs veh, DEPTOR / RFU, CPM / Fold change vs veh, CPM / RFU, DNAJB6 / Fold change vs veh, DNAJB6 / RFU, CACNA2D3 / Fold change vs veh, CACNA2D3 / RFU, DTX4 / Fold change vs veh, DTX4 / RFU, TFCP2 / Fold change vs veh, TFCP2 / RFU, GMCL1 /// GMCL1P1 / Fold change vs veh, GMCL1 /// GMCL1P1 / RFU, AEBP2 / Fold change vs veh, AEBP2 / RFU, SNHG1 /// SNORD22 /// SNORD25 /// SNORD26 /// SNORD27 /// SNORD28 /// SNORD29 /// SNORD31 / Fold change vs veh, SNHG1 /// SNORD22 /// SNORD25 /// SNORD26 /// SNORD27 /// SNORD28 /// SNORD29 /// SNORD31 / Fold change (Aza/veh), C12orf56 (ProbeSet 11735607_a_at) / Fold change (ACY-1035/veh), C12orf56 (ProbeSet 11735607_a_at) / Fold change (Aza/veh), FGFR1OP (ProbeSet 11751329_s_at) / Fold change (ACY-1035/veh), FGFR1OP (ProbeSet 11751329_s_at) / Fold change (Aza/veh), VPS36 (ProbeSet 11739960_a_at) / Fold change (ACY-1035/veh), VPS36 (ProbeSet 11739960_a_at) / RFU SYPL1 (11715823_x_at) / Fold change /veh SYPL1 (11715823_x_at) / RFU IGFBP7 (11715501_s_at) / Fold change /veh IGFBP7 (11715501_s_at) / RFU REEP3 (11722064_at) / Fold change /veh REEP3 (11722064_at) / RFU IGLL1 (11728026_x_at) / Fold change /veh IGLL1 (11728026_x_at): dose or concentration left out as unconfirmed
Conditions: MV-4-11 cells, 48 hours

SMILES: Nc1ccc(-c2cccs2)cc1NC(=O)c1ccc2c(c1)cc(C1CC1)n2CCN1CCOCC1 [ACY-1035]
- RFU DUSP10 (11751237_a_at): 30.58 RFU
